The results in this text go back to publication PMC5215716, “A Target-Based Whole Cell Screen Approach To Identify Potential Inhibitors of Mycobacterium tuberculosis Signal Peptidase” (ACS Infectious Diseases, 2016).

The target of data set [1] is T1, LepB (Mycobacterium tuberculosis, UniProt P9WKA1).
T1 construct: we used purified membrane fractions to develop an in vitro assay for signal peptide cleavage; host or cells: γ-irradiated whole M. tuberculosis H37Rv; Triton X-114 membrane fraction
T1 sequence (P9WKA1 1-294): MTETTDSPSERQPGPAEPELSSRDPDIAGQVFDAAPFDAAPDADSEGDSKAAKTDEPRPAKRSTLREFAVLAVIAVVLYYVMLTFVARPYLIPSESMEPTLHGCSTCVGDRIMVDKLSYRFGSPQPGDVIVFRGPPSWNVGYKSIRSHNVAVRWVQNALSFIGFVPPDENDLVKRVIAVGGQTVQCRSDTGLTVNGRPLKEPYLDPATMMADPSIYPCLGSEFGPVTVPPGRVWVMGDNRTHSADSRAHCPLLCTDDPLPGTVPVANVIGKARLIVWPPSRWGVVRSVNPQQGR
Put plainly: LepB membrane assay (fluorogenic signal peptide cleavage by cell membrane fraction). The class given is biochemical. Conditions: M. tuberculosis H37Rv cell membrane fraction, 2 μM peptide substrate, 4 h at 37 °C.

Data set [2] is described as follows: in vitro. Conditions: African green monkey. The class given is cell-based, African green monkey. How it is done:
(§1) Cytotoxicity against African green monkey adult kidney cell (Vero cells) was determined as previously described using CellTiter-Glo reagent.[44] The concentration causing 50% growth inhibition (IC50) was calculated by fitting the inhibition curves using the Levenberg–Marquardt algorithm.

Data set [3] relates to wild-type (wt) M. tuberculosis strain. Put plainly: microbe, parasite or virus in culture. The class given is cell-based, Mycobacterium tuberculosis. Conditions: […], OD590 after 5 days at 37 °C, average ± SD of at least two experiments, b = single value; for MIC: Mycobacterium tuberculosis, 120 h, read-out: WT MIC.
Data set [4] relates to M. tuberculosis strain SPAM13C (LepB-UE). The experiment in a line: microbe, parasite or virus in culture. The class given is cell-based, Mycobacterium tuberculosis. As to conditions: for LepB-UE MIC / MIC: M. tuberculosis strain SPAM13C, OD590 after 5 days at 37 °C, average ± SD of at least two experiments, b = single value; for MIC: Mycobacterium tuberculosis, 120 h, read-out: LepB-UE MIC; for Change in potency against LepB-UE compared to compound 1: decrease in potency relative to compound 1.

Data set [5] deals with Vero cells. The experiment in a line: in vitro. The class given is cell-based, African green monkey. As to conditions: relative to compound 16. The protocol:
as §1

Each structure is given as a SMILES string. Converted amounts (≈) assume the structure as drawn.

As to `Cc1ccc(-c2cc(C(=O)N/N=C/c3ccccn3)[nH]n2)cc1` [Compound 15], the IC50 in data set [1] was above 200 µM. Further, in data set [2], it took 63 µM to reach half-maximal cytotoxicity (CC50). Further, the MIC in data set [3] was above 200 µM. Moreover, the “LepB-UE MIC” value in data set [4] is 15 ± 2.5 µM.
In turn, `N=C(N/N=C/c1cc([N+](=O)[O-])ccc1O)c1ccccn1` [Compound 16] came in with a 50% inhibitory concentration (IC50) in data set [1] of 119 µM. In addition, the CC50 in data set [2] was above 100 µM. Further, the values for the MIC in data set [3] and in data set [4] were above 200 µM and 10 ± 3.4 µM (≈ 2.85 µg/mL), respectively.
In data set [1], `C/C(=N\Nc1nc(C)cc(C)n1)c1ccco1` [Compound 20] showed an IC50 of 74 µM. Moreover, in data set [2], the CC50 was above 100 µM. Besides, in data set [3], the MIC is above 200 µM. The “Change in potency against LepB-UE compared to compound 1” value (“Change in potency against LepB-UE” below) in data set [4] was “at least 10 fold”.
The matching figures for `C/C(=N\Nc1nc(C)cc(C)n1)c1cccs1` [Compound 21]: 120 µM, above 100 µM, above 200 µM and “at least 10 fold”.
The matching figures for `C/C(=N\Nc1nc(C)cc(C)n1)c1ccccc1` [Compound 22]: above 200 µM, above 100 µM, above 200 µM and “at least 10 fold”.
Turning to `C/C(=N\Nc1nc(C)cc(C)n1)c1cccc(O)c1` [Compound 23], the IC50 in data set [1] stood at 140 µM. The same molecule came in with a CC50 in data set [2] above 100 µM. Besides, the MIC in data set [3] turned out to be 115 µM (≈ 29.5 µg/mL). Also, in data set [4], the “LepB-UE MIC” value was 54 ± 2 µM, the MIC was in the range of 30 to 90 µM (≈ 7.69 to 23.1 µg/mL) and the “Change in potency against LepB-UE” value is “at least 10 fold”.
The molecule `Cc1cc(C)nc(NN=C(c2ccccc2)c2ccccc2)n1` [Compound 27] yielded an IC50 in data set [1] above 200 µM. The midpoint of cytotoxicity in data set [2], the CC50, lay at 0.1 µM. Also, the MIC in data set [3] was found to be 17 ± 8 µM (≈ 5.14 µg/mL). For the same molecule, in data set [4], the MIC came out at 2.2 ± 0.7 µM (≈ 0.665 µg/mL) and the “Change in potency against LepB-UE” value was “little impact on antitubercular activity compared to compound 1”.
Taken in the same sequence, the figures for `C/C(=N\Nc1nnc2c(n1)[nH]c1ccc(C)cc12)c1ccccn1` [Compound 28] were 87 µM, 1.2 µM, above 200 µM, 4.8 ± 2.4 µM (≈ 1.52 µg/mL) and “activity was comparable to that of 1”.
Take `COc1ccc([N+](=O)[O-])cc1/C=N/NC(=N)c1ccccn1` [Compound 33]: the CC50 in data set [2] was above 100 µM. For the same molecule, the “Decrease in selectivity compared to 16” value in data set [5] came to 15 fold. The MIC in data set [3] and in data set [4] was above 200 µM throughout.
As to `N=C(N/N=C/c1cccc([N+](=O)[O-])c1)c1ccccn1` [Compound 34], in data set [2], the CC50 is above 100 µM. In data set [5], the “Decrease in selectivity compared to 16” value is recorded as 15 fold. The MIC is above 200 µM in data set [3] and 106 µM (≈ 28.5 µg/mL) in data set [4].
In data set [1], `COc1ccc(CC(=O)N/N=C(\C)c2ccccn2)cc1OC` [Compound 36] came in with an IC50 above 200 µM. This molecule displayed a CC50 in data set [2] of 12 µM. Also, the MIC in data set [3] was 53 ± 2 µM (≈ 16.6 µg/mL); in data set [4], 26 ± 1 µM (≈ 8.15 µg/mL).
Take `C/C(=N\NC(=O)C1CCCN(S(=O)(=O)c2ccccc2)C1)c1ccccn1` (stereo not shown) [Compound 38]: in data set [1], the IC50 came out at 180 µM. Also, the CC50 in data set [2] came out at 9.5 µM. For the same molecule, the MIC in data set [3] was 17 ± 5 µM (≈ 6.57 µg/mL); in data set [4], 3.5 to 15 µM (≈ 1.35 to 5.8 µg/mL). Moreover, in data set [4], the “LepB-UE MIC” value amounted to 4.9 ± 0.2 µM.
Take `C/C(=N\NC(=O)c1ccoc1C)c1ccccn1` [Compound 39]: the IC50 in data set [1] was above 200 µM. Besides, in data set [2], half-maximal cytotoxicity (CC50) was put at 3.3 µM. In data set [3], the MIC was below 10 µM and the “WT MIC” value stood at 5.5 ± 1.4 µM. In data set [4], the “LepB-UE MIC” value was determined as 2.5 ± 0.2 µM and the MIC fell in the range of 2 to 2.5 µM (≈ 0.487 to 0.608 µg/mL).
In turn, `C/C(=N\NC(=O)C1CC1)c1ccccn1` [Compound 40] came in with an IC50 in data set [1] above 200 µM. For the same molecule, the half-maximal cytotoxic concentration (CC50) in data set [2] was found to be 75 µM. Further, in data set [3], the MIC stood at 42 ± 15 µM (≈ 8.54 µg/mL). Further, the “LepB-UE MIC” value in data set [4] worked out at 15 ± 1 µM.
In turn, `C/C(=N\NS(=O)(=O)c1ccccc1)c1ccccn1` [Compound 42] showed an IC50 in data set [1] of 34 µM. In data set [2], the cytotoxic concentration (CC50) is above 100 µM. Also, the MIC came to 94 µM (≈ 25.9 µg/mL) in data set [3] and 48 µM (≈ 13.2 µg/mL) in data set [4]. In data set [4], the “Change in potency against LepB-UE” value is reported as 16 fold.
As for `Cc1cc(C)nc(-n2nc(C)cc2C)n1` [Compound 43], in data set [1], the IC50 is above 200 µM. The CC50 in data set [2] was above 100 µM. For the same molecule, the MIC came out at 115 ± 23 µM (≈ 23.3 µg/mL) in data set [3] and 48 ± 2 µM (≈ 9.71 µg/mL) in data set [4].
Taken in the same sequence, the figures for `Cc1cc(C)nc(-n2nc(C)c(Oc3ccccc3O)c2C)n1` [Compound 44] were above 200 µM, above 100 µM, above 200 µM and 95 ± 7 µM (≈ 29.5 µg/mL).
Take `CC1=NN(c2nc(C)cc(C)n2)C(=O)C1C` (stereo not shown) [Compound 46]: the IC50 in data set [1] was above 200 µM. The molecule further gave a CC50 in data set [2] above 100 µM. Moreover, the MIC is above 200 µM in data set [3] and 90 ± 28 µM (≈ 19.6 µg/mL) in data set [4].
`Cc1cc(C)nc(-n2nc(C)c(Cc3ccccc3C)c2O)n1` [Compound 47] showed an IC50 in data set [1] above 200 µM. In addition, the CC50 in data set [2] is above 100 µM. The MIC in data set [3] is above 200 µM; in data set [4], 61 ± 7 µM (≈ 18.8 µg/mL).
As for `Cc1cc(C)nc(NNC(=O)c2ccccn2)n1` [Compound 57], the IC50 in data set [1] came to 64 µM. Besides, it took 32 µM to reach half-maximal cytotoxicity in data set [2] (CC50). Also, in data set [3], the MIC was 25 µM (≈ 6.08 µg/mL) and the “WT MIC” value came out at 25 ± 4 µM. In addition, in data set [4], the “LepB-UE MIC” value stood at 3.9 ± 1.3 µM, the MIC is 3.5 to 15 µM (≈ 0.851 to 3.65 µg/mL) and the “Change in potency against LepB-UE” value is listed as “activity similar to that of 1”.
